The test system of assay [1] is COX-2 production in LPS-induced BV2 microglia cell lines. As to the kind of experiment: COX-2 assessment in LPS-induced BV2 microglia (ELISA). The format is cell-based. On the procedure: Previously, it was reported that COX-2 is a key mediator in the inflammatory response and may play a role in neurodegeneration.
(§1) LPS was the used positive control.
For COX-2, all reagents, samples, and standards were prepared as Kit instructions, then 100 μl of standard or sample were added to each well, incubated 2.5 h at room temperature. Then 100 μl of prepared biotin antibody was added to each well, incubated an hour at room temperature. After that 100 μl of prepared Streptavidin solution was added. Then it was incubated for 45 min at room temperature. An aliquot of 100 μl TMB One-Step Substrate Reagent was added to each well, incubated 30 min at room temperature, 50 μL stop solution added to each well. Finally, the optical density was read at 450 nm immediately.

Assay [2] deals with NO production in LPS-induced BV2 microglia cell lines. The assay is described as follows: Nitric oxide (NO) assessment in LPS-induced BV2 microglia. Type of assay: cell-based. As to conditions: positive control 6.42 pg/mL. On the procedure:
In AD, increased production of vascular NO, a highly neurotoxic mediator in the CNS, may contribute to the vulnerability of neurons to injury and cell death.
as §1
NO plays an important role in neurotransmission, vascular regulation, immune response, and apoptosis. NO is rapidly oxidised to nitrite and nitrate which are used to quantitate NO. NO was estimated using the Abcam ELISA kit (catalog No. ab65328). Briefly, enzyme was added to cell lysate, followed with cofactor and incubated at room temperature for 60 min, after that Griess reagent was added and incubated at room temperature for 10 min., finally optical density was measured at 540 nm.
Microglia cell Line, BV-2, human neuroblastoma (SH-SY5Y), and normal hepatic (THLE2) cells were obtained from American Type Culture Collection, cells were cultured using DMEM (Invitrogen/Life Technologies, Carlsbad, CA) supplemented with 10% FBS (Hyclone), 10 µg/mL of insulin (Sigma, St. Louis, MO), and 1% penicillin-streptomycin. All of the other chemicals and reagents were from Sigma, or Invitrogen. Plate cells (cells density 1.2 − 1.8 × 10,000 cells/well) in a volume of 100 µL complete growth medium + 100 µL of the tested compounds per well in a 96-well plate for 24 h before the MTT assay.

Assay [3] deals with TNF-α production in LPS-induced BV2 microglia cell lines. As to the kind of experiment: TNF-α assessment in LPS-induced BV2 microglia (ELISA). Type of assay: cell-based. On the procedure: TNF-α signalling exacerbates both Aβ and tau pathologies in vivo, according to several lines of evidence based on genetic and pharmacological modifications.
as §1
For TNF-α, cell lysate was used to assess TNF-α using the MyBioSource ELISA kit (Catalog No: MBS2502004). This assay employs the quantitative sandwich enzyme immunoassay technique. Briefly, 100 µl of the samples were added to each well. Incubate for 90 min at 37 °C, and immediately add 100 μl of Biotinylated Detection Ab working solution to each well. Incubate for 1 h at 37 °C, then add 350 µl of wash buffer to each well, 100 μl of HRP Conjugate working solution to each well was added, incubated for 30 min at 37 °C. Add 90 μl of Substrate Reagent to each well. Incubate for about 15 min at 37 °C. Then, 50 μl of Stop Solution was added to each well. Finally, the optical density of each well was detected at 450 nm.

Assay [4] addresses T1, Aβ1–42 (Homo sapiens, UniProt P05067).
T1 construct: purchased BioVision K570-100
As to the kind of experiment: Inhibition of Aβ1-42 self-induced aggregation (BioVision ligand screening kit). Type of assay: biochemical. As to conditions: µM. The text has this:
Screening Aβ42 ligands that could prevent aggregation is critical for developing potential therapeutic treatments. In BioVision’s Beta-Amyloid 1–42 (Aβ42) Ligand Screening kit, a dye binds to the beta-sheets of an aggregated amyloid peptide resulting in an intense fluorescent product at wave length 450 nm using a BIOLINE ELISA reader. In the presence of an Aβ42 ligand, this reaction is impeded/abolished resulting in a decrease or total loss of fluorescence. This assay is useful in screening Aβ42 ligands for developing potential therapeutic agents against AD[42]. The assessment was performed according to BioVision’s Beta-Amyloid 1–42 (Aβ42) Ligand Screening Kit Catalog No. K570-100.

The target of assay [5] is AChE (Homo sapiens, UniProt P22303). As to the kind of experiment: biochemical. To be noted: modified Ellman; read-out: AChE inhibitory activity IC50. On the procedure: (§2) The effects of twenty synthetic compounds were evaluated for AChE and BuChE inhibition using the modified method of Ellman et al.[33] […] AChE and BuChE are found in the brains of mammals. Genetically, structurally, and kinetically, the two kinds vary. In the human brain, BuChE is found in glial cells and neurons as well as in plaques and tangles in AD patients. […] BuChE may replace AChE by hydrolysing brain acetylcholine in some conditions, such as in mice nullizygote for AChE or in AD patients in advanced stages of the disease[34]^,[35].
Chain of AChE (P22303 32-614): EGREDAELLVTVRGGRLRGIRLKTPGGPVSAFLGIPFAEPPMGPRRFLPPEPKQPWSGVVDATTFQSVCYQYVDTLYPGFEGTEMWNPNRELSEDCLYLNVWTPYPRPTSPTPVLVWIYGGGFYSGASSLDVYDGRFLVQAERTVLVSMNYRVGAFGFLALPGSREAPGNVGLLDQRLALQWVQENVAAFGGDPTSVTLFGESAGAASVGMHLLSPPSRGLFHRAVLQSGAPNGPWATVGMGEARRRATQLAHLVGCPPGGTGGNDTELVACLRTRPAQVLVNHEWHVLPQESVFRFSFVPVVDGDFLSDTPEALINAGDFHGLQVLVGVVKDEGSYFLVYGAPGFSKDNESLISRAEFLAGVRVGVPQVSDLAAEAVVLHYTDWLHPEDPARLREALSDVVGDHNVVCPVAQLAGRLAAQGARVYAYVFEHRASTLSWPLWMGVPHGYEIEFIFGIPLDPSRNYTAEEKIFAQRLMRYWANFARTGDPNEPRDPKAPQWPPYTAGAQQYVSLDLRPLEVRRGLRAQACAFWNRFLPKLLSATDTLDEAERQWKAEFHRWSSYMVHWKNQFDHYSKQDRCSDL

Assay [6] addresses BuChE (Homo sapiens, UniProt P06276). The assay is described as follows: biochemical. As to conditions: modified Ellman; read-out: BuChE inhibitory activity IC50. As to the method:
as §2

Assay [7] has as its system IL-1β production in LPS-induced BV2 microglia cell lines. The assay is described as follows: IL-1β assessment in LPS-induced BV2 microglia (ELISA). Type of assay: cell-based. On the procedure: IL-1β is a pro-inflammatory cytokines involved in the pathogenesis of AD[40]. So, activity of 5b and 6b derivatives were evaluated against LPS-induced BV2 microglia cell lines production of IL-1β. They induced a decrease in IL-1β level to about 5% and 48%, sequentially, as compared to a positive control (Figure 5).
as §1
For IL-1β, this assay employs the quantitative sandwich enzyme immunoassay technique. A monoclonal antibody specific for human IL-1β has been pre-coated onto a micro plate. Standards and samples are piped into the wells and any IL-1β present is bound by the immobilised antibody. After washing away any unbound substances, an enzyme-linked polyclonal antibody specific for human IL-1β is added to the wells. Following a wash to remove any unbound antibody-enzyme reagent, a substrate solution is added to the wells and colour develops in proportion to the amount of IL-1β bound in the initial step. The colour development is stopped and the intensity of the colour is measured, the method of assessment was performed as instructed in the IL-1 β R&D system ELISA kit (catalog No. DLB50).

Assay [8] concerns IL-1β production. The arrangement: method as in PMID 21295616. To be noted: read-out: suppression of IL-1β production IC50; cited from earlier work.

T1 sequence (P05067 672-713 limits assumed): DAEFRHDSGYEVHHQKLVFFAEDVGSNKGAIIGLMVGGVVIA
Chain of BuChE (P06276 29-602): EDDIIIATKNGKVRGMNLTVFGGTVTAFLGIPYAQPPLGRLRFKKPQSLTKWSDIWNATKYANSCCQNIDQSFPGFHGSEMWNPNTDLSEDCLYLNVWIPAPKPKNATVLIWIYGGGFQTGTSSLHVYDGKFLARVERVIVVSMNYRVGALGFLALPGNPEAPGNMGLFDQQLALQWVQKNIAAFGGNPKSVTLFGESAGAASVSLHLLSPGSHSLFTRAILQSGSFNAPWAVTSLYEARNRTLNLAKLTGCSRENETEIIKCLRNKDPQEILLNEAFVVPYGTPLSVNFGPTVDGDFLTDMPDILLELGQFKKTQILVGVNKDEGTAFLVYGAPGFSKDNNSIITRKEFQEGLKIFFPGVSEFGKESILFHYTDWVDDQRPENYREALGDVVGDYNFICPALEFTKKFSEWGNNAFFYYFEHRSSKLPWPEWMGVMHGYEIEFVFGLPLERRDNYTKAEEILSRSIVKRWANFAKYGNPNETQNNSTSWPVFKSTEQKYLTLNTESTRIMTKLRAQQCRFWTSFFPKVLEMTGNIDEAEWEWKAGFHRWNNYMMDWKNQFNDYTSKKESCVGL

Turning to `CS(=O)(=O)n1cc(/C=C/C(=O)c2ccc(NC(=O)Cc3ccc(Cl)cc3)cc2)c2ccccc21` [Compound 5b, (E)-2–(4-Chlorophenyl)-N-{4-[3–(1-(methylsulfonyl)-1H-indol-3-yl)acryloyl]phenyl}acetamide], the “decrease in COX-2 levels as compared to a positive control” value in assay [1] is given as “about 20%”. Moreover, the NO level in assay [2] came out at 4.89 pg/mL. For the same molecule, the “decrease in TNF-α levels to, compared to positive control” value in assay [3] is on record as 53%. Further, the concentration for half-maximal inhibition (IC50) in assay [4] worked out at 2.5 µM; in assay [5] it was 27.5 nM; in assay [6], 36.9 nM. The “decrease in IL-1β level to about, as compared to a positive control” value in assay [7] is listed as “about 5%”.

On to `CS(=O)(=O)n1cc(/C=C/C(=O)c2ccc(NC(=O)CN3CCC(Cc4ccccc4)CC3)cc2)c2ccccc21` [Compound 6b, (E)-2–(4-Benzylpiperidin-1-yl)-N-{4-[3–(1-(methylsulfonyl)-1H-indol-3-yl)acryloyl]phenyl}acetamide], for which the “decrease in COX-2 levels as compared to a positive control” value in assay [1] was around 14%. In addition, the NO level in assay [2] is recorded as 4.46 pg/mL. The “decrease in TNF-α levels to, compared to positive control” value in assay [3] came out at 67%. The IC50 in assay [4] turned out to be 4.94 µM; in assay [5], 49.3 nM; in assay [6], 80.4 nM. In assay [7], the “decrease in IL-1β level to about, as compared to a positive control” value is around 48%.

As to `Cc1cc(-c2ccccc2)nnc1C(=O)N1CCN(c2ncccn2)CC1` [GIBH-130], in assay [8], the concentration for half-maximal inhibition (IC50) was 3.4 nM.

The record behind these values is paper PMC9518246, “Design and synthesis of new indole drug candidates to treat Alzheimer’s disease and targeting neuro-inflammation using a multi-target-directed ligand (MTDL) strategy” (Journal of Enzyme Inhibition and Medicinal Chemistry, 2022).
